Data taken from US5686482A, “N-(3-pyrrolidinyl) benzamide derivative” (priority 1994, dated 1997).
Read-outs that look alike come from different tables or passages of the source.

Experiments:
D4 receptor = target: T1, D4 receptor (Homo sapiens, UniProt P21917); assay: receptor binding test, D4 receptor; conditions: for Ki: cloned receptor membrane, [125I]iodosulpride or [3H]YM-09151-2, 25° C., 1 hour; for Ratio D2/D4: ratio of Ki values
T1 sequence (P21917 1-419): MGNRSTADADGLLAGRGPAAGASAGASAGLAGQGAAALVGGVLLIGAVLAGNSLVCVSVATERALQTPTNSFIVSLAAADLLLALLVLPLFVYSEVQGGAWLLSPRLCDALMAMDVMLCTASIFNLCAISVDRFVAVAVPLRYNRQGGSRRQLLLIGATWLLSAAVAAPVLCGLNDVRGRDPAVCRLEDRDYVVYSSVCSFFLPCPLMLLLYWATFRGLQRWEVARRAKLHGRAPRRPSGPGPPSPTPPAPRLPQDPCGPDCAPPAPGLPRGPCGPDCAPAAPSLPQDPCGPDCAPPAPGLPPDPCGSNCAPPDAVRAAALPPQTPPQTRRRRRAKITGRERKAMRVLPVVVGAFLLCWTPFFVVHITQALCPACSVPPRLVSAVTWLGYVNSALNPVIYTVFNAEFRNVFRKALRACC

D3 receptor = target: T2, D3 receptor (Rattus norvegicus, UniProt P19020); assay: receptor binding test, D3 receptor; conditions: for Ki: cloned receptor membrane, [125I]iodosulpride or [3H]YM-09151-2, 25° C., 1 hour; for Ratio D2/D3: ratio of Ki values
T2 construct: expressed in transfected cells
Method: Using membrane samples of these cells, affinity of compounds for D2 receptor, D3 receptor and D4 receptor was examined by a receptor binding test. The receptor binding test was carried out in the following manner. A D2 receptor, D3 receptor or D4 receptor membrane sample and [^125 I] iodosulpride or [^3 H] YM-09151-2 (trade name, manufactured by Daiichi Pure Chemicals) were incubated at 25° C. for 1 hour in the presence of each compound to be tested. The reaction solution was filtered through a glass filter to measure the amount of radioisotope on the filter.

D2 receptor = target: T3, D2 receptor (Rattus norvegicus, UniProt P61169); assay: receptor binding test, D2 receptor; conditions: cloned receptor membrane, [125I]iodosulpride or [3H]YM-09151-2, 25° C., 1 hour
T3 construct: expressed in transfected cells

schizophrenia patients = conditions: cited from earlier work
[1] = tested on: apomorphine-induced climbing behavior; assay: antagonism test on apomorphine-induced climbing behavior; type: in vivo; conditions: Mus musculus; SC administration, 15 minutes before apomorphine 2 mg/kg SC; ICR mice; measured during 30 minutes
Method: 2) Antagonism test on apomorphine-induced climbing behavior
Each test compound was administered to ICR mice (body weight, around 35 g; Japan SLC) by subcutaneous injection and, after 15 minutes, apomorphine (2 mg/kg) was subcutaneously injected.

[2] = tested on: D2, D3 and D4 subtype receptors; conditions: existing antipsychotic agents; cited from earlier work

T3 sequence (P61169 whole entry): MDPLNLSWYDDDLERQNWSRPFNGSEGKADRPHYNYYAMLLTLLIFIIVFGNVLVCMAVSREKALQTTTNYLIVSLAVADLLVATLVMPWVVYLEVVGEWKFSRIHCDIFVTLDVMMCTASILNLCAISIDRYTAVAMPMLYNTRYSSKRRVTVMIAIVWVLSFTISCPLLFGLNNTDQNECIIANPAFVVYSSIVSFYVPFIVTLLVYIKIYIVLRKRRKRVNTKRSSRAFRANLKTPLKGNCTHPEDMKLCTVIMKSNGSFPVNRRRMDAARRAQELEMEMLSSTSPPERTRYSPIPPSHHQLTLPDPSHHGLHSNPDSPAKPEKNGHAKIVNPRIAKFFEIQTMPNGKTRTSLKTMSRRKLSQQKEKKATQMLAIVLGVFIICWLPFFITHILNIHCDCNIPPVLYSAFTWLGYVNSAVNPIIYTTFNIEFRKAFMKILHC
T2 sequence (P19020 whole entry): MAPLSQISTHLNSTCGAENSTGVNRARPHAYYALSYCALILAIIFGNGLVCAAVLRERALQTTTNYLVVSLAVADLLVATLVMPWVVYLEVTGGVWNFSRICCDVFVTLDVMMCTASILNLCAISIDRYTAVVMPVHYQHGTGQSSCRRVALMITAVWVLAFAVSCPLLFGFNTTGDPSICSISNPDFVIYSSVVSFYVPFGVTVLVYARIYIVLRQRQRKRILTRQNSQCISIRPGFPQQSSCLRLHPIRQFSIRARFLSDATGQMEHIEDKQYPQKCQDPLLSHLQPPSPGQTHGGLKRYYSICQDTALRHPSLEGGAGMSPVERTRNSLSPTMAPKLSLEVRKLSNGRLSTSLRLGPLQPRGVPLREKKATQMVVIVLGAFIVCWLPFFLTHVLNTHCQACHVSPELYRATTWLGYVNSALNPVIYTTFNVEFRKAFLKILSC

SMILES	Ki (D4 receptor) [nM]	Ratio D2/D4 (D4 receptor)	Ki (D3 receptor) [nM]	Ratio D2/D3 (D3 receptor)	Ki (D2 receptor) [nM]	effect on negative symptoms (schizophrenia patients; clinical)	side effects such as extrapyramidal symptoms (schizophrenia patients; clinical)	ED50 [1] [mg/kg]	relative affinity for D2, D3 and/or D4 receptor [2]	side effects such as extrapyramidal symptoms (schizophrenia patients; human, in vivo)
COc1cc(OC)c([N+](=O)[O-])cc1C(=O)N[C@H]1CCN(C2C3CCCC2CCC3)C1 (stereo partly drawn) [Example 7, (S)-N-[1-(bicyclo[3.3.1]non-9-yl)-3-pyrrolidinyl]-2,4-dimethoxy-5-nitrobenzamide]	1.1	65	1.5	48	72	–	–	–	–	–
CN1CCN(C2=Nc3cc(Cl)ccc3Nc3ccccc32)CC1 [Clozapine]	–	–	–	–	–	effective for patients mainly having negative symptoms	small extrapyramidal symptoms	6.8	–	–
CCN1CCCC1CNC(=O)c1cc(S(N)(=O)=O)ccc1OC (stereo not drawn) [sulpiride]	–	–	–	–	–	certain degree of effects on negative symptoms	–	–	its affinity for D3 and/or D4 receptor is similar to its affinity for D2 receptor	relatively small side effects
O=C(CCCN1CCC(O)(c2ccc(Cl)cc2)CC1)c1ccc(F)cc1 [haloperidol]	–	–	–	–	–	–	highly frequent onset of side effects	–	high affinity for D2 receptor in comparison with D3 receptor and/or D4 receptor	–

Now from value to compound, other results behind:

Ki (D4 receptor) [nM]	Ratio D2/D4 (D4 receptor)	Ki (D3 receptor) [nM]	Ratio D2/D3 (D3 receptor)	Ki (D2 receptor) [nM]	SMILES	effect on negative symptoms (schizophrenia patients; clinical)	side effects such as extrapyramidal symptoms (schizophrenia patients; clinical)	ED50 [1] [mg/kg]	relative affinity for D2, D3 and/or D4 receptor [2]	side effects such as extrapyramidal symptoms (schizophrenia patients; human, in vivo)
2.6	135	4	88	350	COc1cc(OC)c(C(=O)N[C@H]2CCN(C3C4CCCC3CCC4)C2)cc1C#N (stereo partly drawn) [Example 19, (S)-N-[1-(bicyclo[3.3.1]non-9-yl)-3-pyrrolidinyl]-5-cyano-2,4-dimethoxybenzamide]	–	–	–	–	–
1.8	19	3.5	9.7	34	CNc1cc(C(=O)N[C@H]2CCN(C3C4CCCC3CCC4)C2)c(OC)cc1OC (stereo partly drawn) [Example 30, (S)-N-[1-(bicyclo[3.3.1]non-9-yl)-3-pyrrolidinyl]-2,4-dimethoxy-5-methylaminobenzamide hemifumarate]	–	–	1.8	–	–
